Here are results for nine molecules from US9279806B2, “Water-soluble AIE luminogens for monitoring and retardation of fibrillation of amyloid proteins” (THE HONG KONG UNIVERSITY OF SCIENCE AND TECHNOLOGY, priority 2005, dated 2016).

Read-outs that look alike come from different tables or passages of the source.

The target of data set [1] is Bovine serum albumin (BSA) (Bos taurus, UniProt P02769). Briefly: Fluorimetric titration of BSA to polyenes. The data set is classed as binding. The protocol:
(§1) Fluorimetric titration of biomacromolecules to polyenes Bovine serum albumin (BSA) and calf thymus DNA (ctDNA) were selected as model proteins and DNA. BSA was dissolved in a pH 7.0 phosphate buffer solution (1.0 mg/ml). DNA was dissolved in deionized water (1.0 mg/ml) and filtered through a 0.45 μm filter. The actual concentration (in nucleic base) was determined by UV photometry using the extinction coefficient ε260=6600 M^−1 cm^−1.
(§2) Stock solutions of polyenes were 5×10^−4 M in water. Fluorescence titration was carried out by sequentially adding 100 μl aliquots of DNA or BSA solutions to a 100 μl stock solution of polyenes, followed by adding an aqueous phosphate buffer (10 mM, pH 7) to acquire a 10.00 ml solution. The mixtures were stirred for half an hour prior to taking their spectra.
Complexation of the water-soluble AIE TPEs 3 and 4 with calf thymus DNA (ctDNA) and bovine serum albumin (BSA) were investigated by spectrometric titrations in aqueous phosphate buffer (pH=7.0) at 25 C. Stock solutions of TPEs 3 and 4 (0.25 mM) were prepared.

The nature of the next data set: Solubility. The data set is classed as physicochemical.
A further data set concerns calf thymus DNA (ctDNA). Briefly: Fluorimetric titration of ctDNA to polyenes. The data set is classed as binding. The note with it: for Relative affinity to ctDNA versus BSA: phosphate buffer pH 7, dye 2.5 μM. As for the experimental part:
as §1, §2
Complexation of the water-soluble AIE TPEs 3 and 4 with calf thymus DNA (ctDNA) and bovine serum albumin (BSA) were investigated by spectrometric titrations in aqueous phosphate buffer (pH=7.0) at 25 C. Stock solutions of TPEs 3 and 4 (0.25 mM) were prepared. The mixture of 100 μl stock solution of 3 with 9.9 ml buffer emits faintly at 395 nm with a side band at 462 nm. Its absorption maximum locates at 311 nm, with a molar absorptivity of 12400M^−1 cm^−1. Upon addition of the DNA, FL intensity of TPE 3 increased by 5.4 fold. Meanwhile its emission maximum shifted to ˜462 nm, giving a Stokes shift as large as 134 nm. In the DNA concentration range of 0-100 μg/ml^−1, the plot of the FL intensity (1) at 462 nm as a function of DNA concentration (c) is a linear line with a correlation coefficient of 0.996. Addition of BSA to a buffer solution of TPE 3 induced a similar effect. The linear range of the I/IO−1 vs. c plot in this case is 0-50 μg/ml^−1. The excitation maximums of the solutions of TPE3 containing BSA and ctDNA both locate at 328 nm.

Data set [2] can be described thus: Photophysical properties in solution and aggregate states (AIE effect). It is filed as physicochemical. The note with it: for Emission maximum wavelength (λem): excitation 350 nm.
Assay in data set [3]: as above
The data set is classed as physicochemical. The note with it: for Fluorescence quantum yield (ΦF), molecularly dissolved: AN solution / AN-water mixtures with low water fraction; for Fluorescence quantum yield (ΦF), aggregated: AN/water mixture with 99% water. An excerpt:
Changes in the φF values of TBEPE in the AN/water mixtures with different water contents further confirm its AIE nature. […] Afterward the φF value starts to increase swiftly. In the AN/water mixtures with lower water fractions, TBEPE is genuinely dissolved, while in the aqueous mixtures with higher water fractions (>60%), the dye molecules cluster together due to the deterioration in the solvating power of the mixture. When the water fraction is increased to 99 vol %, the aφF value is increased to −18%, which is ˜35-fold higher than that in the pure AN solvent. The absolute φF values of the aggregates should be much higher than the relative ones given in FIG. 26A, if the light scattering caused by the Mie effect of the nanoaggregatcs is taken into consideration. […]
Dilute solutions of TPEs 1 and 2 in AN are practically non-luminescent. Addition of non-solvent water into the AN solutions can turn on the emissions of the dyes. From the molecular solution in AN to the aggregate suspension in an AN-water mixture (1:99 by volume), the fluorescent intensity of TPE 1 at 476 nm is increased by −240 fold (FIG. 11A). Its absorption maximum shifts from 310 nm in the solution to 330 nm in the suspension. The excitation maximum of TPE 1 locates at 330 nm, coinciding well with its absorption maximum. […] Evidently, the emission of TPE 1 is induced by the aggregate formation, or in other words, TPE 1 is AIE-active.
The ΦF value of TPE 1 starts to increase when the water fraction is increased to ˜50%, at which the solvating power of the mixture is decreased to such an extent that the dye molecules begin to aggregate. The ΦF value reaches ˜20% at a water content of 99%, which is ˜40-fold higher than that of its AN solution. […] Their emissions in the mixtures remain as faint as those in the water solutions.

The next data set has as its target HSA (Homo sapiens, UniProt P02768). The note with it: cited from earlier work.
Data set [4] relates to ctDNA/RNA from torula yeast/BSA. Briefly: Fluorescence increments / binding isotherm with ctDNA, RNA and BSA. The note with it: 10 μg/ml ctDNA or RNA, dye 5 μM. The protocol: FIG. 8 illustrates increments of fluorescence of TPE-C2N^+ (8), N+C2-TPE-C2N^+ (9), TPE-C4N^+ (10), N+C4-TPE-C4N^+ (11) when binding with 10 μg/ml ctDNA/10 μg/ml RNA diethylaminoethanol (DEAE) salt from torula yeast/10 μg/ml RNA from torula yeast in buffer solution pH=7. Concentration of dyes: 5 μM; excitation wavelength: 350 nm. The four cationic TPE derivatives display larger FL enhancement in the presence of DNA than that of RNA.
FIG. 9 illustrates the binding isotherm of N+C2-TPE-C2N^+ (5 μM) to ctDNA/RNA from torula yeast/BSA (plot of the fluorescence intensity at 470 nm for ctDNA/RNA, and at 467 nm for BSA) in aqueous phosphate buffer (pH=7.0).

For a further data set, the system named is HG21 DNA. The experiment in a line: CD spectra: G-quadruplex induction by TPE derivatives. It is filed as biochemical. The note with it: 9 μM DNA, 4.5 μM TPE derivative, Tris-HCl pH 7.5, 25 °C. As for the experimental part:
[TPE]=4.5 μM; [HG21]=9 μM and [K^+]=0.5 M.
CD spectral profiles of 9 μM DNA in 5 mM Tris-HCl buffer solutions (pH 7.5) incubated under 25° C. with four different TPE derivatives at 4.5 μM or with 0.5M K^+ ions are studied (FIG. 77). TPE derivatives 1-4 are TTAPE (Example 6), TPE-2 (chemical structure is not shown herein), TPE-3 (chemical structure is not shown herein) and TPE-C2N+ (Example 3), respectively. […] On the other hand, DNA incubated with TTAPE or the known quadruplex inducer; K^+ ions have very similar spectral profiles, while the ellipticities of DNA/TTAPE are somehow weaker than DNA/K^+.

Where [5] appears, read: aggregate: 99% water/AN for TPE-OMe and TPE-OH, 99% AN/water for TPE-SO3.
Where [6] appears, read: solution: acetonitrile for TPE-OMe and TPE-OH (10 μM), water for TPE-SO3 (5 μM).

Sequence of Bovine serum albumin (BSA) (P02769 25-607): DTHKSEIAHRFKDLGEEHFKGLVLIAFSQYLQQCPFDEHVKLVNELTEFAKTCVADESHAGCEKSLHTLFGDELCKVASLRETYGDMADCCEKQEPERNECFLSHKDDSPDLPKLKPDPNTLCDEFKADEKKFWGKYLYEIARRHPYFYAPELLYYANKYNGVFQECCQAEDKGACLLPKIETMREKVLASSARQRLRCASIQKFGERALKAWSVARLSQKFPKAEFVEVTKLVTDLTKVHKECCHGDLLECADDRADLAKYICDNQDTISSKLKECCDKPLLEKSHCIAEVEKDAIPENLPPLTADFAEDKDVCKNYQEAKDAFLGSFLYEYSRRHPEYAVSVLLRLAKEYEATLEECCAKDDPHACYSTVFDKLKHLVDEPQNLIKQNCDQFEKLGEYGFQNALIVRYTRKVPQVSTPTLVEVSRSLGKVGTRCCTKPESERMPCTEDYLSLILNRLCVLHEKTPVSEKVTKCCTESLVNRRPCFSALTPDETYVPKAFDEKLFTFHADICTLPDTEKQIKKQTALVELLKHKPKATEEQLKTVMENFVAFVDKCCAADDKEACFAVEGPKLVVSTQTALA
Sequence of HSA (P02768 25-609): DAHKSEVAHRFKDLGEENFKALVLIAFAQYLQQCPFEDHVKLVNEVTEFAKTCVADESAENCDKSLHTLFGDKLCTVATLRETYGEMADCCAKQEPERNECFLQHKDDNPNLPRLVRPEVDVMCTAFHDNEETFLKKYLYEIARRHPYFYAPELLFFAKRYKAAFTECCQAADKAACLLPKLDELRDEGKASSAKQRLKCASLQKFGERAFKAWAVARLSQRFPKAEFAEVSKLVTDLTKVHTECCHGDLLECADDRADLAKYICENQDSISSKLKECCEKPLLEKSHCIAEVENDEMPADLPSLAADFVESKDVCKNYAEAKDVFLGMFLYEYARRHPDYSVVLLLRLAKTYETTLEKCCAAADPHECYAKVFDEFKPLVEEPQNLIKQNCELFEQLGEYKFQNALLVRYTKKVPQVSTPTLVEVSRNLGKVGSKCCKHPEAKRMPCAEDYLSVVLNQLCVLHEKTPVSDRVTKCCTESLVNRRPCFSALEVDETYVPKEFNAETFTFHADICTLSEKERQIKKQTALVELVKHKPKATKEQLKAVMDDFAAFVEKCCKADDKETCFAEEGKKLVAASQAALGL

With `CC[N+](CC)(CC)CCCCOc1ccc(/C(=C(\c2ccccc2)c2ccc(OCCCC[N+](CC)(CC)CC)cc2)c2ccccc2)cc1.[Br-].[Br-]` [TPE-C4N^+, N,N′-[1,2-Diphenyl-1,2-bis(1,4-phenoxybutyl)vinyl]bis(triethylammonium bromide)], the “Linear range of FL intensity vs BSA concentration” value in data set [1] is given as 0-40 μg/ml^−1. The I/Io in data set [1] (500 μg/ml BSA added) stood at 23.8. The Solubility in water result in the data set “Solubility” is on record as “soluble in water”. Further, in the data set with calf thymus DNA (ctDNA), the “Linear range of FL intensity vs DNA concentration” value is 0-20 μg/ml^−1 and the “Relative affinity to ctDNA versus BSA” value is listed as “gives the opposite result”. In addition, in the data set with calf thymus DNA (ctDNA) (300 μg/ml ct DNA added), the I/Io is on record as 16.3.
Consider `O=C(O)c1ccc(/C(=C(\c2ccccc2)c2ccc(C(=O)O)cc2)c2ccccc2)cc1` [TPE-COOH, 4,4′-(1,2-diphenylvinyl)di(phenylcarboxylic acid)], for which, in the data set “Solubility”, the Solubility in water result is given as “insoluble”.
On to `Oc1ccc(/C(=C(\c2ccccc2)c2ccc(O)cc2)c2ccccc2)cc1` [TPE-OH, 1,2-Bis(4-hydroxyphenyl)-1,2-diphenylethylene], for which the “ΦE (quantum yield), bind” value in data set [1] (BSA solution of TPE-OH•Na2 or TPE-SO3 in aqueous phosphate buffer pH 7.0) is given as 35.7%. Moreover, the “λex (emission maximum), bind” value in data set [1] (BSA solution of TPE-OH•Na2 or TPE-SO3 in aqueous phosphate buffer pH 7.0, excitation 350 nm) is recorded as 467 nm. The “Linear range of FL intensity vs BSA concentration” value in data set [1] (aqueous phosphate buffer pH 7.0) is 0 to 10 µg/mL. Further, in data set [2] (setting [5]), the “ΦE (quantum yield), aggr” value is on record as 8.90%; the “λab (absorption maximum), aggr” value is recorded as 316 nm; the “Emission maximum wavelength (λem)” value is listed as 439 nm. In data set [2] (setting [6]), the “ΦE (quantum yield), soln” value amounted to 0.57%; the “λab (absorption maximum), soln” value came to 312 nm; the “Emission maximum wavelength (λem)” value was found to be 393 nm.
In the case of `BrCCOc1ccc(C(=C(c2ccc(OCCBr)cc2)c2ccc(OCCBr)cc2)c2ccc(OCCBr)cc2)cc1` [TBEPE, 1,1,2,2-tetrakis[4-(2-bromoethoxy}phenyl]ethene], in data set [3], the “Increase of ΦF at 99% water versus AN solution” value was about 35 fold; the Fluorescence quantum yield (ΦF), molecularly dissolved was determined as 0.5%; the Fluorescence quantum yield (ΦF), aggregated is 18%. Further, in the data set “Solubility”, the Solubility in water result was “totally insoluble in water”.
`BrCCOc1ccc(C(=C(c2ccccc2)c2ccc(OCCBr)cc2)c2ccccc2)cc1` [TPE 1, 1,2-Bis[4-(2-bromoethoxy)phenyl]-1,2-diphenylethene]: in data set [3], the Increase of fluorescent intensity at 476 nm, AN solution to AN-water (1:99) suspension stood at 240 fold; the “Increase of ΦF at 99% water versus AN solution” value is about 40 fold; the “Fluorescence quantum yield (ΦF), molecularly dissolved” value is reported as about 0.5%; the “Fluorescence quantum yield (ΦF), aggregated” value was about 20%. Moreover, the Solubility in water result in “Solubility” was “insoluble in water”.
As for Coomassie Brilliant Blue, on HSA, the “Staining reaction (soaking) time” value is given as “more than 6 hours”.
Regarding `CC[N+](CC)(CC)CCCCOc1ccc(C(=C(c2ccc(OCCCC[N+](CC)(CC)CC)cc2)c2ccc(OCCCC[N+](CC)(CC)CC)cc2)c2ccc(OCCCC[N+](CC)(CC)CC)cc2)cc1.[Br-].[Br-].[Br-].[Br-]` [N+C4-TPE-C4N^+, N,N′,N″,N′″-[1,2-Tetrakis(1,4-phenoxybutyl)vinyl)tetrakis(triethylammonium bromide)], in data set [4], the “Variety of FL in presence of DNA and RNA compared with TPE-C2N+ and TPE-C4N+” value is on record as “much larger variety of FL”.
With `COc1ccc(C(=C(c2ccccc2)c2ccc(OC)cc2)c2ccccc2)cc1` [TPE-OMe, 1,2-Bis(4-methoxyphenyl)-1,2diphenylethene], in data set [2] (setting [5]), the “ΦE (quantum yield), aggr” value is listed as 15.30%; the “λab (absorption maximum), aggr” value came out at 330 nm; the “Emission maximum wavelength (λem)” value turned out to be 477 nm. Moreover, in data set [2] (setting [6]), the “ΦE (quantum yield), soln” value is recorded as 0.11%; the “λab (absorption maximum), soln” value is recorded as 311 nm; the “Emission maximum wavelength (λem)” value stood at 394 nm.
Take `CC[N+](CC)(CC)CCOc1ccc(/C(=C(\c2ccccc2)c2ccc(OCC[N+](CC)(CC)CC)cc2)c2ccccc2)cc1.[Br-].[Br-]` [TPE-C2N^+, N,N′-[1,2-Diphenyl-1,2-bis(1,4-phenoxyethyl)vinyl]bis(triethylammonium bromide)]: the “G-quadruplex induction (CD spectral profile)” value in the data set with HG21 DNA is “spectral profile comparable to the negative control”. Further, the “Linear range of FL intensity vs BSA concentration” value in data set [1] was 0-50 μg/ml^−1. Also, the Solubility in water entry in “Solubility” is “soluble in water”. In the data set with calf thymus DNA (ctDNA), the “Linear range of FL intensity vs DNA concentration” value is 0-100 μg/ml^−1 and the “Relative affinity to ctDNA versus BSA” value is given as “better affinity to ctDNA than BSA”. Further, in the data set with calf thymus DNA (ctDNA) (phosphate buffer pH 7.0, 25 C), the “FL intensity increase upon addition of DNA” value is given as 5.4 fold.
